Data as given in ChEMBL document CHEMBL4665893, “Scalable Synthesis, In Vitro cccDNA Reduction, and In Vivo Antihepatitis B Virus Activity of a Phosphonomethoxydeoxythreosyl Adenine Prodrug” (J Med Chem, 2020).
Activity calls are given as the source filed them. The rule behind the calls is not given here.

Tests used:
Hepatitis B virus [1] = experiment: Antiviral activity against ETV-resistant and adenovirus AdH294-7LR harboring wild-type HBV infected in human HepG2 cells assessed as viral replicative intermediate DNA level at 3300 nM incubated for 5 days by Southern blot analysis (reference value: 100%); assay type: functional; details: time 5 day
Hepatitis B virus [2] = experiment: Antiviral activity against ETV-resistant and adenovirus AdH294-7LR harboring wild-type HBV infected in human HepG2 cells assessed as viral replicative intermediate DNA level at 10000 nM incubated for 5 days by Southern blot analysis (reference value: 100%); assay type: functional; details: time 5 day
Hepatitis B virus [3] = experiment: Antiviral activity against adenovirus AdH294-WT harboring wild-type HBV genotype D accession #V01460 infected in human HepG2 cells assessed as reduction in viral replicative intermediate DNAs at 4 to 1000 nM incubated for 5 days by Southern blot analysis; assay type: functional, organism-based; details: time 5.0 day
Hepatitis B virus [4] = experiment: Antiviral activity against ETV-resistant and adenovirus AdH294-7LR harboring wild-type HBV infected in human HepG2 cells assessed as viral replicative intermediate DNA level at 13 nM incubated for 5 days by Southern blot analysis (reference value: 100%); assay type: functional; details: time 5 day
Hepatitis B virus [5] = experiment: Antiviral activity against ETV-resistant and adenovirus AdH294-7LR harboring wild-type HBV infected in human HepG2 cells assessed as viral replicative intermediate DNA level at 4 nM incubated for 5 days by Southern blot analysis (reference value: 100%); assay type: functional; details: time 5 day
Hepatitis B virus [6] = experiment: Antiviral activity against ETV-resistant and adenovirus AdH294-7LR harboring wild-type HBV infected in human HepG2 cells assessed as viral replicative intermediate DNA level at 1100 nM incubated for 5 days by Southern blot analysis (reference value: 100%); assay type: functional; details: time 5 day
Hepatitis B virus [7] = experiment: Antiviral activity against ETV-resistant and adenovirus AdH294-7LR harboring wild-type HBV infected in human HepG2 cells assessed as viral replicative intermediate DNA level at 120 nM incubated for 5 days by Southern blot analysis (reference value: 100%); assay type: functional; details: time 5 day
Hepatitis B virus [8] = experiment: Antiviral activity against adenovirus AdH294-WT harboring wild-type HBV genotype D accession #V01460 infected in human HepG2 cells assessed as reduction in viral replicative intermediate DNA level at 40 nM incubated for 5 days by Southern blot analysis (reference value: 100%); assay type: functional; parameters: scale not given: the % may be the effect or the level left; details: time 5 day
Hepatitis B virus [9] = experiment: Antiviral activity against adenovirus AdH294-WT harboring wild-type HBV genotype D accession #V01460 infected in human HepG2 cells assessed as reduction in viral replicative intermediate DNA level at 4 nM incubated for 5 days by Southern blot analysis (reference value: 100%); assay type: functional; parameters: scale not given: the % may be the effect or the level left; details: time 5 day
Hepatitis B virus [10] = experiment: Antiviral activity against adenovirus AdH294-WT harboring wild-type HBV genotype D accession #V01460 infected in human HepG2 cells assessed as reduction in viral replicative intermediate DNA level at 1100 nM incubated for 5 days by Southern blot analysis (reference value: 100%); assay type: functional; parameters: scale not given: the % may be the effect or the level left; details: time 5 day
Hepatitis B virus [11] = experiment: Antiviral activity against adenovirus AdH294-WT harboring wild-type HBV genotype D accession #V01460 infected in human HepG2 cells assessed as reduction in viral replicative intermediate DNA level at 370 nM incubated for 5 days by Southern blot analysis (reference value: 100%); assay type: functional; parameters: scale not given: the % may be the effect or the level left; details: time 5 day
[12] = Toxicity in HBV infected hydrodynamic injection C57BL/6 mouse model assessed as effect on body weight at 0.6 to 60 mg/kg, po QD for 6 days; assay type: organism-based; details: in vivo, 144 h, dose 0.6-60 mg/kg, time 6 day
Hepatitis B virus [13] = experiment: Antiviral activity against adenovirus AdH294-WT harboring wild-type HBV genotype D accession #V01460 infected in human HepG2 cells assessed as reduction in viral replicative intermediate DNA level at 10000 nM incubated for 5 days by Southern blot analysis (reference value: 100%); assay type: functional; parameters: scale not given: the % may be the effect or the level left; details: time 5 day
Hepatitis B virus [14] = experiment: Antiviral activity against adenovirus AdH294-WT harboring wild-type HBV genotype D accession #V01460 infected in human HepG2 cells assessed as reduction in viral replicative intermediate DNA level at 120 nM incubated for 5 days by Southern blot analysis (reference value: 100%); assay type: functional; parameters: scale not given: the % may be the effect or the level left; details: time 5 day
Hepatitis B virus [15] = experiment: Antiviral activity against ETV-resistant and adenovirus AdH294-7LR harboring wild-type HBV infected in human HepG2 cells assessed as viral replicative intermediate DNA level at 370 nM incubated for 5 days by Southern blot analysis (reference value: 100%); assay type: functional; details: time 5 day
Hepatitis B virus [16] = experiment: Antiviral activity against adenovirus AdH294-WT harboring wild-type HBV genotype D accession #V01460 infected in human HepG2 cells assessed as reduction in viral replicative intermediate DNA level at 3300 nM incubated for 5 days by Southern blot analysis (reference value: 100%); assay type: functional; parameters: scale not given: the % may be the effect or the level left; details: time 5 day
Hepatitis B virus [17] = experiment: Antiviral activity against ETV-resistant and adenovirus AdH294-7LR harboring wild-type HBV infected in human HepG2 cells assessed as viral replicative intermediate DNA level at 40 nM incubated for 5 days by Southern blot analysis (reference value: 100%); assay type: functional; details: time 5 day
Hepatitis B virus [18] = experiment: Antiviral activity against ETV-resistant and adenovirus AdH294-7LR harboring wild-type HBV infected in human HepG2 cells assessed as reduction in viral replicative intermediate DNAs up to 100 uM incubated for 5 days by Southern blot analysis; assay type: functional, organism-based; details: dose microM <=100, time 5.0 day
Hepatitis B virus [19] = experiment: Antiviral activity against adenovirus AdH294-WT harboring wild-type HBV genotype D accession #V01460 infected in human HepG2 cells assessed as reduction in viral replicative intermediate DNA level at 13 nM incubated for 5 days by Southern blot analysis (reference value: 100%); assay type: functional; parameters: scale not given: the % may be the effect or the level left; details: time 5 day
Hepatitis B virus [20] = experiment: Antiviral activity against HBV infected hydrodynamic injection C57BL/6 mouse model assessed as reduction in serum HBV DNA level at 0.6 to 60 mg/kg, po QD for 6 days by qPCR analysis; assay type: functional, organism-based; details: dose mg/kg 0.6-60, time 6.0 day
Hepatitis B virus [21] = experiment: Antiviral activity against ETV-resistant and adenovirus AdH294-7LR harboring wild-type HBV infected in human HepG2 cells assessed as reduction in viral replicative intermediate DNAs at 4 to 1000 nM incubated for 5 days by Southern blot analysis; assay type: functional, organism-based; details: time 5.0 day
Hepatitis B virus [22] = experiment: Antiviral activity against HBV infected in human HepDE19 cells assessed as reduction in HBV cccDNA incubated for 9 days by qPCR analysis; assay type: functional, organism-based; details: HepDE19, 216 h
[23] = Toxicity in human HepDE19 cells assessed as reduction in beta-actin level incubated for 9 days by qPCR analysis; assay type: cell-based; details: time 9 day
[24] = Selectivity index, […] against HBV infected in human HepDE19 cells to CC50 for toxicity in human HepDE19 cells; assay type: cell-based; details: read-out: Ratio CC50/IC50

Row | Compound | Activity (Hepatitis B virus [1]) | Activity (Hepatitis B virus [2]) | Activity (Hepatitis B virus [4]) | Activity (Hepatitis B virus [5]) | Activity (Hepatitis B virus [6]) | Activity (Hepatitis B virus [7]) | Activity (Hepatitis B virus [8]) | Activity (Hepatitis B virus [9]) | Activity (Hepatitis B virus [10]) | Activity (Hepatitis B virus [11]) | Activity [12] | Activity (Hepatitis B virus [13]) | Activity (Hepatitis B virus [14]) | Activity (Hepatitis B virus [15]) | Activity (Hepatitis B virus [16]) | Activity (Hepatitis B virus [17]) | Activity (Hepatitis B virus [19]) | Activity (Hepatitis B virus [20]) | other results
1 | C=C1[C@H](CO)[C@@H](O)C[C@@H]1n1cnc2c(=O)[nH]c(N)nc21.O [ENTECAVIR] | 35.5% | 37% | 92.2% | 93.9% | 51.2% | 63.8% | 16% | 46.4% | 7% | 10.5% | Non-Toxic | 2.9% | 13.8% | 60.4% | 4.6% | 98.6% | 25.7% | Dose-dependent effect | Activity (Hepatitis B virus [3]): Active; Activity (Hepatitis B virus [18]): inactive
2 | CC(C)OC(=O)[C@H](C)N[P@](=O)(CO[C@H](C)Cn1cnc2c(N)ncnc21)Oc1ccccc1 [TENOFOVIR ALAFENAMIDE] | 1.2% | 0% | 38.3% | 93.7% | 2.6% | 11.3% | 18.1% | 75.6% | 1.3% | 4.2% | Non-Toxic | 0% | 10.8% | 5% | 0% | 21.4% | 40.7% | Dose-dependent effect | Activity (Hepatitis B virus [21]): Active; IC50 (Hepatitis B virus [22]): 40 nM; IC90 (Hepatitis B virus [22]; time 9 day): > 100 nM; CC50 at 216 h [23]: 500 nM; selectivity ratio [24]: 13
